In patent US20240218022A1, “ANTI-VISTA MACROCYCLIC PEPTIDES AND COMPOSITIONS” (BRISTOL-MYERS SQUIBB COMPANY, priority 2022, published 2024):
Read-outs that look alike come from different tables or passages of the source. Values belong to the compound of their own block, whether it stands above or below them. Starred links: 1 amine or outer side, 2 acyl side, 3 side chain; linkers in the order of their positions; H or OH if unused. Positions of bridges follow the written chain, without caps; N, C: chain ends. Non-standard residues stand in square brackets, D forms with d. Residues, ends and D or L forms follow the SMILES beside them. ξ: configuration not given here. Phe(3-Me) = Cc1cccc(C[C@H](N)C(=O)O)c1; γGlu = O=C(O)[C@H](CCC(=O)[*:2])N[*:1]; 2Nal = N[C@@H](Cc1ccc2ccccc2c1)C(=O)O; βAsp = O=C(O)[C@H](CC(=O)[*:2])N[*:1]; Ile(3ξ) = CCC(C)[C@H](N)C(=O)O; NMeL = CN[C@@H](CC(C)C)C(=O)O; Ahp(2) = CCCCC[C@H](N)C(=O)O; NMeNle = CCCC[C@H](NC)C(=O)O; Tle = CC(C)(C)[C@H](N)C(=O)O; NHexGly = CCCCCCNCC(=O)O; Nle = CCCC[C@H](N)C(=O)O; Orn = NCCC[C@H](N)C(=O)O; Aun = NCCCCCCCCCCC(=O)O; AEEA = NCCOCCOCC(=O)O

Biological target: T1, mouse VISTA (mVISTA) (Mus musculus, UniProt Q9D659)
T1 construct: expressed in transfected cells; host or cells: Human embryonic kidney 293T cells
T1 sequence (Q9D659 33-308): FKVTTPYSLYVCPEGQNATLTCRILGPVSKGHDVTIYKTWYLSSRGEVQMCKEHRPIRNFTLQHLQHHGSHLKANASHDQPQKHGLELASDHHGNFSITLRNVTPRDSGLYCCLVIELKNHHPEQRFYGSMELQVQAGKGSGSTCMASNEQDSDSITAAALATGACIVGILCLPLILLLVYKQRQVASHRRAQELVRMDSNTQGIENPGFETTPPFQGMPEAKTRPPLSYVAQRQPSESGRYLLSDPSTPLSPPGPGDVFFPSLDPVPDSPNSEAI
Assay: Cell-Based Binding High-Content Assay For mVISTA (HC CBA mVISTA)
Method in brief: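 mVISTA-293T, 4,000 cells/well; cpd ± washout step; biotin-peptide 2 nM final, 30 min RT; SA-Alexa 647 30 min; formaldehyde/Hoechst fix; HCS imaging; 4PL IC50.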

[1] = cell-based binding high-content assay, mVISTA, the 16th table, read-out: HC CBA mVISTA IC50

IC50 [1]: 9.5 nM
Compound: CCCCCCN1CC(=O)N[C@@H](Cc2ccc(O)cc2)C(=O)N[C@@H](CCCC)C(=O)N[C@@H](CC(N)=O)C(=O)N[C@@H](CCCNC(=N)N)C(=O)N(C)[C@@H](CCCC)C(=O)N[C@@H](CCCCC)C(=O)N2CCC[C@H]2C(=O)N[C@@H](C(C)C)C(=O)N[C@@H](CC(=O)O)C(=O)N[C@H](C(=O)NCC(=O)O)CSCC(=O)N[C@@H](Cc2ccc3ccccc3c2)C(=O)N[C@@H](Cc2ccc(O)cc2)C(=O)N[C@@H](CC(=O)O)C1=O [Ex 1308] ({CH2CO}-[2Nal]YD[NHexGly]Y[Nle]NR[NMeNle][Ahp(2)]PVDCG-OH; thioether N-14)

IC50 (read-out: HC CBA mVISTA IC50): 33.1 nM
Compound: CCCCCCN1CC(=O)N[C@@H](Cc2ccc(O)cc2)C(=O)N[C@@H](CCCC)C(=O)N[C@@H](CC(N)=O)C(=O)N[C@@H](CCCNC(=N)N)C(=O)N(C)[C@@H](CC(C)C)C(=O)N[C@@H](CCCCC)C(=O)N2CCC[C@H]2C(=O)N[C@@H](C(C)(C)C)C(=O)N[C@@H](CO)C(=O)N[C@H](C(=O)NCCOCCOCC(=O)N[C@@H](CCC(=O)NCCOCCOCC(=O)NCCCCCCCCCCC(=O)O)C(=O)O)CSCC(=O)N[C@@H](Cc2ccccc2)C(=O)N[C@@H](Cc2c[nH]c3ccccc23)C(=O)N[C@@H](CC(=O)O)C1=O [compound 2229] ({CH2CO}-FWD[NHexGly]Y[Nle]NR[NMeL][Ahp(2)]P[Tle]SC[AEEA][γGlu][AEEA][Aun]-OH; thioether N-14)

IC50 (cell-based binding high-content assay, mVISTA, read-out: HC CBA miPrISTA IC50): 24.1 nM
Compound: CCCCCCN1CC(=O)N[C@@H](Cc2ccc(O)cc2)C(=O)N[C@@H](CC(C)C)C(=O)N[C@@H](CC(N)=O)C(=O)N[C@@H](CCCNC(=N)N)C(=O)N(C)[C@@H](CCCC)C(=O)N[C@@H](CCCCC)C(=O)N2CCC[C@H]2C(=O)N[C@@H](C(C)(C)C)C(=O)N[C@@H](CC(=O)O)C(=O)N[C@H](C(=O)N[C@@H](CC(=O)NCCOCCOCC(=O)N[C@@H](CC(=O)O)C(=O)NCCOCCOCC(=O)NCCCCCCCCCCC(=O)O)C(=O)O)CSCC(=O)N[C@@H](Cc2ccccc2)C(=O)N[C@@H](Cc2cccc(C)c2)C(=O)N[C@@H](CC(=O)O)C1=O [compound 2075] ({CH2CO}-F[Phe(3-Me)]D[NHexGly]YLNR[NMeNle][Ahp(2)]P[Tle]DC[βAsp][AEEA]D[AEEA][Aun]-OH; thioether N-14)

IC50 [1]: 5.5 nM
Compound: CCCCCCN1CC(=O)N[C@@H](Cc2ccc(O)cc2)C(=O)N[C@@H](C(C)C)C(=O)NCC(=O)N[C@@H](CCCNC(=N)N)C(=O)N[C@@H](CC(C)C)C(=O)N[C@@H](CCCCC)C(=O)N2CCC[C@H]2C(=O)N[C@@H](C(C)C)C(=O)N[C@@H](CC(=O)O)C(=O)N[C@H](C(=O)N[C@@H](Cc2ccc(O)cc2)C(N)=O)CSCC(=O)N[C@@H](Cc2ccc3ccccc3c2)C(=O)N[C@@H](Cc2ccc(O)cc2)C(=O)N[C@@H](CC(=O)O)C1=O [Ex 1322] ({CH2CO}-[2Nal]YD[NHexGly]YVGRL[Ahp(2)]PVDCY-NH2; thioether N-14)

IC50 [1]: 3.4 nM
Compound: CCCCCCN1CC(=O)N[C@@H](Cc2ccc(O)cc2)C(=O)N[C@@H](C(C)C)C(=O)NCC(=O)N[C@@H](CCCNC(=N)N)C(=O)N[C@@H](CC(C)C)C(=O)N[C@@H](CCCCC)C(=O)N2CCC[C@H]2C(=O)N[C@@H](C(C)C)C(=O)N[C@@H](CC(=O)O)C(=O)N[C@H](C(=O)N[C@@H](CC(N)=O)C(N)=O)CSCC(=O)N[C@@H](Cc2ccc3ccccc3c2)C(=O)N[C@@H](Cc2ccc(O)cc2)C(=O)N[C@@H](CC(=O)O)C1=O [Ex 1310] ({CH2CO}-[2Nal]YD[NHexGly]YVGRL[Ahp(2)]PVDCN-NH2; thioether N-14)

IC50 (293T cells expressing mouse VISTA, competition with biotinylated peptide (2 nM), read-out: HC CBA mVISTA IC50): 30 nM
Compound: CCCCCCN1CC(=O)N[C@@H](Cc2ccc(O)cc2)C(=O)N[C@@H](C(C)CC)C(=O)NCC(=O)N[C@@H](CCCNC(=N)N)C(=O)N[C@@H](CC(C)C)C(=O)N[C@@H](CCCCC)C(=O)N2CCC[C@H]2C(=O)N[C@@H](C(C)C)C(=O)N[C@@H](CO)C(=O)N[C@H](C(=O)NCC(=O)O)CSCC(=O)N[C@@H](Cc2ccccc2)C(=O)N[C@@H](Cc2ccc(O)cc2)C(=O)N[C@@H](CC(=O)O)C1=O (stereo partly shown) [Example 1059] ({CH2CO}-FYD[NHexGly]Y[Ile(3ξ)]GRL[Ahp(2)]PVSCG-OH; thioether N-14)

IC50 (cell-based binding high-content assay, mVISTA, the 15th table, read-out: HC CBA mVISTA IC50): 12.9 nM
Compound: CCCCCCN1CC(=O)N[C@@H](Cc2ccc(O)cc2)C(=O)N[C@@H](CCCC)C(=O)N[C@@H](CC(=O)O)C(=O)N[C@@H](CCCN)C(=O)N(C)[C@@H](CCCC)C(=O)N[C@@H](CCCCC)C(=O)N2CCC[C@H]2C(=O)N[C@@H](C(C)C)C(=O)N[C@@H](CC(=O)O)C(=O)N[C@H](C(=O)N[C@@H](CO)C(N)=O)CSCC(=O)N[C@@H](Cc2ccc3ccccc3c2)C(=O)N[C@@H](Cc2c[nH]c3ccccc23)C(=O)N[C@@H](CC(=O)O)C1=O [compound 1256] ({CH2CO}-[2Nal]WD[NHexGly]Y[Nle]D[Orn][NMeNle][Ahp(2)]PVDCS-NH2; thioether N-14)
